Source: patent US8946302B2, “Selective sigma-1 receptor ligands” (Wisconsin Alumni Research Foundation, priority 2008, dated 2015)
Several values for one entry are separate records, joined by “and”; a condition that tells them apart may be missing. Identical values can stand only once. Like-named read-outs stand apart in the source and are kept apart here.

How the values were obtained:
sigma-2 receptor = molecular target: T1, sigma-2 receptor (Rattus norvegicus, UniProt Q5U3Y7); assay: Sigma-2 competitive binding, [3H]-DTG with (+)-pentazocine, rat liver membranes (Example 6); set-up: from tissue; host or cells: rat liver membranes
T1 sequence (Q5U3Y7 1-176): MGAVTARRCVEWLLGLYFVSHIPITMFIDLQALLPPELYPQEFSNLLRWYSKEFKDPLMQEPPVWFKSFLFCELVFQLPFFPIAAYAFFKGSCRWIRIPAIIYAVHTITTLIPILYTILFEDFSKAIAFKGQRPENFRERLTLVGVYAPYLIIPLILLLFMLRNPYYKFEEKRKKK
Experimental: (§2) Minced frozen rat livers or guinea pig livers (65 g) were thawed in 100 mL homogenization buffer (10 mM phosphate buffer pH 7.4 containing 0.32M sucrose, 1 M MgSO4, 0.5 M EGTA, 1 mM phenylmethylsulphonyl fluoride (PMSF), 10 μg/mlleupeptin, 1 μg/ml pepstatin A, 10 μg/ml p-toluenesulfonyl-L-arginine methyl ester (TAME) and then homogenized on ice with a Brinkman polytron homogenizer (setting 6, 4 bursts of 10 second each) followed by a glass homogenizer (Teflon pestle by 6 slow passes at 3,000 rpm). The homogenized tissues were then centrifuged at 17,000 g for 10 minutes. The supernatants were re-centrifuged at 100,000 g for 1 hour. The microsomal pellets were resuspended in homogenization buffer, snap frozen with dry ice-ethanol, and stored at −80° C. at a final protein concentration of 20 mg/mL.
(§3) Assays for sigma-1 were performed using 10 nM (+)-[^3H]pentazocine in guinea pig liver homogenates (25 μg/well) incubated at 30° C. for 1 hour with several concentrations of competing ligands. After incubation, membranes were harvested on a 0.5% PEI-treated Whatman GF/B filters using a Brandel Cell Harvester. (+)-[^3H]pentazocine binding was determined by liquid scintillation counting. […] Serial concentrations of the compounds evaluated were added to the reactions for 45 minutes at 30° C. and the samples vacuum filtered through 0.5% polyethyleneimine (PEI) treated Whatman GF/B as described above to measure displacement of the radioligands from the sigma receptor subtypes.

sigma-1 receptor [1] = molecular target: T2, sigma-1 receptor (Cavia porcellus, UniProt Q60492); assay: Sigma-1 competitive binding, (+)-[3H]pentazocine, guinea pig liver membranes (Example 6); set-up: from tissue; host or cells: guinea pig liver membranes;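 further: compounds tested over serial concentrations, 45 min incubation at 30 °C with membrane preparations, read-out is displacement of bound radioligand from the receptor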
T2 sequence (Q60492 whole entry): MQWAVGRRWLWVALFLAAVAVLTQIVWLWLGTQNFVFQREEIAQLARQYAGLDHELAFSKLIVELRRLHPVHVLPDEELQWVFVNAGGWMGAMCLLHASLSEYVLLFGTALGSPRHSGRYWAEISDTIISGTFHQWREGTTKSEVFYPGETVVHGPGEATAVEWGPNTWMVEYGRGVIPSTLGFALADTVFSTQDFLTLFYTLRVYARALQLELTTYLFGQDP
Experimental: as §2, §3

[2] = molecular target: T3, purified sigma-1 receptor (Cavia porcellus, UniProt Q60492); assay: Competitive displacement of [3H]-(+)-pentazocine at the pure sigma-1 receptor; format: binding, guinea pig; details: read-out: Ki Pure σ-1R
T3 construct: made in house; host or cells: E. coli BL21 DE3
T3 sequence (Q60492 whole entry): as above
Experimental: A guinea pig sigma-1 receptor was purified as previously described (Ramachandran et al., Protein Expr. Purif., 2007. 51(2): 283-92). The pMal P2X plasmid (New England Biolabs) encoding the guinea pig sigma-1 receptor on the C-terminus of the E. coli Maltose Binding Protein was used for purification. The sigma-1 receptor on its C-terminus carried a hexa-histadine epitope tag. Protein was expressed in the E. coli strain BL21 DE3 (Novagen) with 0.6 mM IPTG. The E. coli pellet was sonicated and centrifuged at 100,000 g for 1 hour to separate the particulate and soluble fractions. The particulate fraction was extracted with Triton X-100, centrifuged and the extract was loaded onto an amylose resin (New England Biolabs, E-802). After washing the resin with buffer containing 0.5% Triton X-100, the MBP-sigma-1 receptor fusion protein was eluted with buffer containing 10 mM maltose.
The MBP-sigma-1-receptor fusion protein was cleaved with Factor Xa protease (Novagen) at room temperature for 24-48 hours and the cleavage was monitored with SDS-polyacrylamide gel electrophoresis. The sigma-1 receptor from the Factor Xa cleavage was purified with a HIS-Select HC Nickel affinity gel (Sigma-Aldrich P6611) in a batch format. The resin was washed with buffer containing 0.5% Triton X-100 detergent and the beads were separated by a brief centrifugation at 4000 rpm in a microcentrifuge. After washing to remove MBP, the pure sigma-1 receptor was eluted in buffer containing 250 mM imidazole.
To remove the undigested MBP-sigma-1 receptor fusion protein that is carried over in the Ni^2+ purification, the eluate from the Ni^2+ purification was incubated with Anti-MBP antibody conjugated to agarose (Vector Laboratories, Burlingame, Calif.) at 4° C. for 18-24 hours. The beads were separated by centrifugation and the supernatant contained the pure sigma-1 receptor.
Competition ligand binding to the pure sigma-1 receptor was performed as previously described. […] After incubation at 30° C. for 60 minutes, the reaction was terminated by rapid filtration through glass fiber filters (Whatman GF/B), using a Brandel cell harvester (Brandel, Gaithersburg, Md.). The glass fiber filters were pre-soaked in 0.5% polyethyleneimine (PEI) for at least 1 hour at room temperature (˜23° C.). Filters were washed 4 times with 4 mL of ice-cold 50 mM Tris-C1, pH 8.0. Radioactivity was quantified by liquid scintillation counting using a Packard model 1600 CA scintillation counter.

σ-1 Sites = molecular target: T4, σ-1 Sites (Cavia porcellus, UniProt Q60492); assay: σ-1 sites radioligand binding, guinea pig liver membranes (Table 2)
T4 construct: from tissue
T4 sequence (Q60492 whole entry): as above
Experimental: as §3

σ-2 Sites = molecular target: T5, σ-2 Sites (Rattus norvegicus, UniProt Q5U3Y7); assay: σ-2 sites radioligand binding, rat liver membranes (Table 2)
T5 construct: from tissue
T5 sequence (Q5U3Y7 1-176): T1 sequence (Q5U3Y7 1-176)
Experimental: as §3

tumor cell lines = assay: Cytotoxicity assays, various tumor cell lines (statements in words); format: cell-based, human
Experimental: Because sigma-1 receptors are overexpressed in numerous tumor cell lines, which include breast cancer, lung carcinoma, renal carcinoma, colon carcinoma, sarcoma, brain tumors, melanoma, glioblastoma, neuroblastoma, and prostate cancer, the ability of the compounds to inhibit the growth of various tumor cell lines were tested.
(§1) Multi-plex cytotoxicity assays were performed by the Keck-UWCCC Small Molecule Screening Facility (Madison, Wis.). Specific methodology can be found online at http://hts.wisc.edu/Resources.htm#mpa.

sigma-1 receptor [3] = molecular target: T2, sigma-1 receptor; assay: Affinity for the sigma-1 receptor (Table 3); format: binding; set-up: from tissue
NCI-H460 = assay: Cytotoxicity assay NCI-H460; format: cell-based; details: Homo sapiens, HU lung, read-out: IC50 (SE) growth inhibition
Experimental: as §1

SKOV-3 = assay: Cytotoxicity assay SKOV-3; format: cell-based; details: Homo sapiens, SK-OV-3, HU Ovarian, read-out: IC50 (SE) growth inhibition
Experimental: as §1

Du145 = assay: Cytotoxicity assay Du145; format: cell-based; details: Homo sapiens, DU-145, HU Prostate, read-out: IC50 (SE) growth inhibition
Experimental: as §1

MCF7 = assay: Cytotoxicity assay MCF7; format: cell-based; details: Homo sapiens, HU Breast, read-out: IC50 (SE) growth inhibition
Experimental: as §1

SF268 = assay: Cytotoxicity assay SF268; format: cell-based; details: Homo sapiens, SF-268, HU CNS, read-out: IC50 (SE) growth inhibition
Experimental: as §1

A549 = assay: Cytotoxicity assay A549; format: cell-based; details: Homo sapiens, HU lung, read-out: IC50 (SE) growth inhibition
Experimental: as §1

MB-MDA-231 = assay: Cytotoxicity assay MB-MDA-231; format: cell-based; details: Homo sapiens, HU Breast, read-out: IC50 (SE) growth inhibition
Experimental: as §1

HT-29 = assay: Cytotoxicity assay HT-29; format: cell-based; details: Homo sapiens, HU Colorectal, read-out: IC50 (SE) growth inhibition
Experimental: as §1

HCT-45 = assay: Cytotoxicity assay HCT-45; format: cell-based; details: Homo sapiens, HU Colorectal, read-out: IC50 (SE) growth inhibition
Experimental: as §1

MCP10A = assay: Cytotoxicity assay MCP10A; format: cell-based; details: Homo sapiens, HU Breast, read-out: IC50 (SE) growth inhibition
Experimental: as §1

HI299 = assay: Cytotoxicity assay HI299; format: cell-based; details: Homo sapiens, HU Lung, read-out: IC50 (SE) growth inhibition
Experimental: as §1

[4] = rat liver membranes, n = 3, read-out: Sigma2 KD values
[5] = guinea pig liver membranes, n = 3, read-out: Sigma 1 KD values

CCCCCCCCN(CCCCCCCC)CCCc1ccc(F)cc1 [Compound 8, N,N-Dioctyl-3-(4-fluorophenyl)propylamine]
Kd (sigma-2 receptor; [4]): 1.65 µM
Ratio (σ2/σ1) (sigma-1 receptor [1]): 2.49

CCCCCCCCCCCCCCCCCCNCCCc1ccccc1 [Compound 1g, N-(3-Phenylpropyl)octadecan-1-amine]
Ki ([2]; [3H]-(+)-pentazocine): 0.0422 µM
Ki (σ-1 Sites; guinea pig liver membranes): 34.4 µM
σ-1 selectivity σ-2 Ki/σ-1 Ki (σ-1 Sites; σ-2 rat liver / σ-1 guinea pig liver membranes): 0.7
Ki (σ-2 Sites): 19.9 µM

CCCC[N+](CCCC)(CCCC)CCCC [Compound 3]
Kd (sigma-2 receptor): 268 µM
Kd (sigma-1 receptor [1]): 54.7 µM
Ratio (σ2/σ1) (sigma-1 receptor [1]): 4.90

CCCN(CCCc1ccc(F)cc1)CCc1ccc(N=[N+]=[N-])c(I)c1 [HD5]
cytotoxicity / tumor cell growth inhibition (tumor cell lines): potent cell growth inhibitor of both MB-MDA-231 and MCF7

CCCCCCCNCCCc1ccccc1 [UC1]
Kd (sigma-1 receptor [3]; read-out: Sigma-1 KD): 0.012 µM

CCCN(CCCc1ccc(F)cc1)Cc1ccc(N)cc1 [Compound 17, N-Propyl-N-(4-amino-benzyl)-3-(4-fluorophenyl)propylamine]
IC50 (NCI-H460): > 100 µM
IC50 (SKOV-3): > 100 µM
IC50 (Du145): > 100 µM
IC50 (MCF7): > 100 µM
IC50 (SF268): > 100 µM
IC50 (A549): > 100 µM
IC50 (MB-MDA-231): > 100 µM
IC50 (HT-29): > 100 µM
IC50 (HCT-45): > 100 µM
IC50 (MCP10A): > 100 µM
IC50 (HI299): > 100 µM
cytotoxicity / tumor cell growth inhibition (tumor cell lines): lacked any cytotoxic properties
Kd (sigma-2 receptor; [4]): 2.15 µM
Ratio (σ2/σ1) (sigma-1 receptor [1]): 13.11 ^
Kd (sigma-1 receptor [1]; [5]): 0.164 µM

CCCCCCCCCCCCCCCCN [Hexadecylamine]
Ki ([2]; [3H]-(+)-pentazocine 10 nM): 2.7 µM and 3 µM

CCCN(CCCc1ccc([N+](=O)[O-])cc1)CCc1ccc(N)cc1 [HD4]
Kd (sigma-1 receptor [3]; read-out: Sigma-1 KD): 0.006 µM

CCCN(CCCc1ccc(F)cc1)Cc1ccc(N)c(I)c1 [Compound 14, N-Propyl-N-(4-amino-3-iodo-benzyl)-3-(4-fluorophenyl)propylamine]
Kd (sigma-2 receptor; [4]): 133 µM
Ratio (σ2/σ1) (sigma-1 receptor [1]): 0.3389
Kd (sigma-1 receptor [1]; [5]): 393 µM

CCCCCCCCCCCCN [Dodecylamine]
Ki ([2]; [3H]-(+)-pentazocine 10 nM): 0.18 µM and 0.2 µM

CCCCCCCCCCCCNCCCc1ccccc1 [UC3]
Kd (sigma-1 receptor [3]; read-out: Sigma-1 KD): 0.092 µM

CCCN(CCCc1ccc([N+](=O)[O-])cc1)CCc1ccc(N)cc1 [Compound 18, N-Propyl-N-4-aminophenylethyl-3-(4-nitrophenyl)propylamine]
IC50 (NCI-H460): > 100 µM
IC50 (SKOV-3): > 100 µM
IC50 (Du145): > 100 µM
IC50 (MCF7): 86.1 µM
IC50 (SF268): > 100 µM
IC50 (A549): > 100 µM
IC50 (MB-MDA-231): > 100 µM
IC50 (HT-29): > 100 µM
IC50 (HCT-45): > 100 µM
IC50 (MCP10A): > 100 µM
IC50 (HI299): > 100 µM
Kd (sigma-2 receptor; [4]): 0.0836 µM
Ratio (σ2/σ1) (sigma-1 receptor [1]): 13.93 ^

CCCNCCc1ccc(F)cc1 [HD7]
Kd (sigma-1 receptor [3]): 0.091 µM

CCCCN(CCCC)CCCc1ccc(F)cc1 [Compound 10, N,N-Dibutyl-3-(4-fluorophenyl)propylamine]
IC50 (NCI-H460): > 100 µM
IC50 (SKOV-3): 56.2 µM
IC50 (Du145): > 100 µM
IC50 (MCF7): > 100 µM
IC50 (SF268): > 100 µM
IC50 (A549): > 100 µM
IC50 (MB-MDA-231): > 100 µM
IC50 (HT-29): > 100 µM
IC50 (HCT-45): > 100 µM
IC50 (MCP10A): > 100 µM
IC50 (HI299): > 100 µM
Kd (sigma-2 receptor; [4]): 0.685 µM
Ratio (σ2/σ1) (sigma-1 receptor [1]): 38.7
Kd (sigma-1 receptor [1]; [5]): 0.0177 µM

CCCCNCc1ccc([N+](=O)[O-])cc1 [Compound 16, N-Butyl-N-4-nitrobenzylamine]
Kd (sigma-2 receptor; [4]): 1.68 µM
Ratio (σ2/σ1) (sigma-1 receptor [1]): 1.4622
Kd (sigma-1 receptor [1]; [5]): 1.15 µM

CN(C)CCc1c[nH]c2ccccc12 [Compound 1]
Kd (sigma-1 receptor [1]; [5]): > 50000 µM

NCCCc1ccccc1 [Compound 2]
Kd (sigma-2 receptor; [4]): 270 µM
Ratio (σ2/σ1) (sigma-1 receptor [1]): 3.92
Kd (sigma-1 receptor [1]; [5]): 68.9 µM
